{
  "source": "patent US20200078404A1",
  "about": "“COMBINATION OF A CELL THERAPY AND AN IMMUNOMODULATORY COMPOUND” (Juno Therapeutics, Inc., priority 2017, published 2020)",
  "key": {"anti-BCMA CAR T cells [1]": {"test_system": "anti-BCMA CAR T cells", "assay": "Cytokine production of anti-BCMA CAR T cells on low, medium, high BCMA bead stimulation", "assay_type": "cell-based, human", "protocol": "In another study, recombinant human BCMA-conjugated beads were used to stimulate CAR T cells at various concentrations to titrate the magnitude of stimulation, either low (5 μg/mL), medium (50 μg/mL), and high (200 μg/mL) stimulation."}, "anti-BCMA CAR+ T cells [2]": {"test_system": "anti-BCMA CAR+ T cells", "assay": "T cell markers and proliferation of anti-BCMA CAR+ T cells stimulated with BCMA-conjugated beads", "assay_type": "cell-based, human", "protocol": "B cell maturation antigen (BCMA) was conjugated to beads by covalently coupling a BCMA-Fc fusion polypeptide, containing soluble human BCMA fused at its C-terminus to an Fc region of IgG, to the surface of commercially available tosyl-activated magnetic beads (ThermoFisher, Waltham Mass.). The beads are superparamagnetic, non-porous, monodisperse, tosylactivated beads that covalently bind primary amino and sulfhydryl groups. Conjugation was performed using beads having a diameter of approximately 2.8 μm (designated M-280) or 4.5 μm (designated M-450).\nVarious concentrations of the BCMA-Fc fusion protein ranging from 5 μg to 200 μg were added to approximately 1 mL of tocylactivated beads (e.g. containing about 4×10^9 tocylactivated beads having a diameter of 2.8 μm or about 4×10^8 tocylactivated beads having a diameter of 4.5 μm). Covalent coupling was performed by overnight incubation at 37° C. in phosphate buffered solution (PBS) containing 0.1% human serum albumin (HSA). Beads were washed and resuspended in 1 mL PBS with 0.1% HSA. After conjugation, the bead concentration was determined using a Cellometer. In the examples below, the BCMA-conjugated beads used in various studies are referred to with reference either to the amount of BCMA-Fc antigen added per mL or the antigen concentration (μg/mL) during the conjugation, e.g. 5 μg or 5 μg/mL; 50 μg or 50 μg/mL; 200 μg or 200 μg/mL and so on.\nApproximately 1.5×10^6 CAR+ T cells were added to wells of a 12-well plate and were incubated with beads from a 200 μg/ml BCMA-conjugated bead composition at a ratio of CAR+ T cell to BCMA-conjugated bead of 1:0.3, 1:1 or 1:3 (approximately 0.5×10^6, 1.5. 10^6, and 4.5×10^6 beads per well, respectively). As controls, 5 μg/mL anti-CD3 antibody was coated to wells (sub-optimal concentration for stimulation) or cells were seeded in the absence of any agent (no stimulation control). […]\nIn a further experiment, anti-BCMA CAR-T cell compositions produced substantially as described in Example 1 were plated in 96-well plates at a density of 5×10^5 cells per well. […]"}, "K562-CD19 cells [3]": {"test_system": "K562-CD19 cells", "assay": "Cytolytic activity of restimulated anti-CD19 CAR+ T cells against K562-CD19 cells", "assay_type": "cell-based, human", "conditions": "1 μM lenalidomide, 2nd and 4th restimulation", "protocol": "Cells from each condition were plated in triplicate. Representative cell killing observed at the 2nd and 4th restimulation for both donors is shown in FIG. 18A (as normalized to K562-CD19-Nuc-labeled cells at t=0) or in FIG. 18B (% cell killing compared to vehicle only control (set at 100%))."}, "RPMI-8226 target cells [4]": {"test_system": "RPMI-8226 target cells", "assay": "Cytolytic activity of anti-BCMA CAR T cells co-cultured with RPMI-8226 target cells with or without lenalidomide", "assay_type": "cell-based, human", "protocol": "[…]. […] Cells from each condition were plated in triplicate."}, "anti-BCMA CAR+ T cells [5]": {"test_system": "anti-BCMA CAR+ T cells", "assay": "Serial restimulation of anti-BCMA CAR+ T cells with irradiated MM1.S cells: expansion, cytokines, CD25", "assay_type": "cell-based, human", "protocol": "Anti-BCMA CAR+ T cells generated as described above were plated in triplicate at 1×10^5 cells/well on 96-well plates.\nEvery 3-4 days (start of each new round), CAR T cells were counted. […] 8 rounds of stimulation were carried out during a 31 day culture period. For some rounds, at re-plating, cells were assessed for phenotypic markers via flow cytometry.\nCulture conditions were reset every 3-4 days. Replating was maintained for 28 days or until the cell count was <50,000 cells. Experiments were performed in triplicate in 3 donors."}, "RPMI-8226 target cells [6]": {"test_system": "RPMI-8226 target cells", "assay": "Cytolytic activity against RPMI-8226 after seven days incubation with BCMA-conjugated beads", "assay_type": "cell-based, human", "protocol": "Cytolytic activity of CAR+ T cells after incubation with BCMA-conjugated beads was assessed by incubation with the BCMA-expressing target cell line RPMI-8226, which is a BCMA+ multiple myeloma cell line. […] The number of viable cells was normalized to cells at day 0 prior to incubation with the RPMI-8226 target cells."}, "anti-BCMA CAR T cells [7]": {"test_system": "anti-BCMA CAR T cells", "assay": "Cytokine production on BCMA/PD-L1 conjugated beads", "assay_type": "cell-based, human", "conditions": "1 μM lenalidomide, 24 hours", "protocol": "In another study, to explore whether the lenalidomide-induced potentiation of CAR T activation and cytokine production could override PD-L1-mediated inhibition, cells were cultured in the presence of BCMA beads generated as described in Example 9, with or without additional conjugation of human recombinant PD-L1-Fc. […] Cytokine production was measured in the supernatant."}, "K562-CD19 cells [8]": {"test_system": "K562-CD19 cells", "conditions": "1-5000 nM lenalidomide, E:T 2.5:1, about 120 hours"}, "[9]": {"test_system": "anti-CD19 CAR-expressing T cells", "assay": "Serial stimulation with K562.CD19: expansion (cell doublings)", "assay_type": "cell-based, human", "conditions": "for cell doublings: 1000 nM lenalidomide", "from_the_text": "Every 3-4 days (start of each new round), the cells were counted."}, "[10]": {"conditions": "medium stimulation (50 μg BCMA beads), 24 hours, 1 μM lenalidomide"}, "[11]": {"conditions": "0.1 μM lenalidomide, repeated stimulation"}},
  "data": [
    {"smiles": "Nc1cccc2c1CN(C1CCC(=O)NC1=O)C2=O", "note": "(stereo not shown) [lenalidomide, 3-(4-amino-1-oxo-1,3-dihydro-2H-isoindol-2-yl)piperidine-2,6-dione]", "values": [
      {"measurement": "percentage of IFN-γ+ and TNF-α+ intracellular staining", "setting": "anti-BCMA CAR T cells [1]; 0.1 or 1.0 μM lenalidomide, all stimulation levels, CD4+ and CD8+", "result": "increased the percentage of IFN-γ^+ and TNF-α^+ intracellular staining"},
      {"measurement": "percentage of IL-2+ CAR+ T cells", "setting": "anti-BCMA CAR T cells [1]; 5-μg stimulation", "result": "increasing the percentage of IL-2^+ CAR^+ T cells"},
      {"measurement": "percentage of IL-2+ CAR+ T cells", "setting": "anti-BCMA CAR T cells [1]; 50-μg and 200-μg stimulation", "result": "decreasing the percentage of IL-2^+ CAR^+ T cells"},
      {"measurement": "CAR T cytokine production", "setting": "anti-BCMA CAR T cells [1]; absence of stimulation", "result": "had no effect on CAR T cytokine production"},
      {"measurement": "increase in IL-2 concentration compared with vehicle control", "setting": "anti-BCMA CAR T cells [1]; [10]", "result": 200, "unit": "%"},
      {"measurement": "increase in TNF-α concentration compared with vehicle control", "setting": "anti-BCMA CAR T cells [1]; [10]", "result": 200, "unit": "%"},
      {"measurement": "IFN-γ concentration compared with vehicle control", "setting": "anti-BCMA CAR T cells [1]; medium stimulation, 24 hours", "result": "donor-dependent increases"},
      {"measurement": "expression level of Ikaros", "setting": "anti-BCMA CAR+ T cells [2]; 0.5 μM or 5 μM lenalidomide, 18 hours, all conditions", "result": "decreased"},
      {"measurement": "proliferative capacity of T cells (CTV)", "setting": "anti-BCMA CAR+ T cells [2]; 5 μM lenalidomide, 200 μg BCMA beads, 1:1, three days", "result": "increased the proliferative capacity of T cells"},
      {"measurement": "surface expression of CD25 in CD4+ and CD8+ T cells", "setting": "anti-BCMA CAR+ T cells [2]; 5 μM lenalidomide, BCMA-conjugated beads or anti-CD3", "result": "further increased the extent of surface expression of CD25"},
      {"measurement": "anti-CD19 CAR+ T cell cytolytic activity", "setting": "K562-CD19 cells [3]", "result": "decrease in anti-CD19 CAR+ T cell cytolytic activity"},
      {"measurement": "target cell killing by anti-BCMA CAR+ T cells", "setting": "RPMI-8226 target cells [4]; 1 μM or 10 μM lenalidomide, E:T 0.3:1, day 6, vs absence of lenalidomide", "result": "greater degree of target cell killing"},
      {"measurement": "time at which the effect of lenalidomide on cytolytic activity emerges", "setting": "RPMI-8226 target cells [4]; in culture", "result": "> 50", "unit": "h"},
      {"measurement": "treatment effect of lenalidomide on CAR T cytolytic activity", "setting": "RPMI-8226 target cells [4]; three healthy donors and one IMiD-refractory patient, 0.01-10 μM", "result": "appeared to be donor-dependent"},
      {"measurement": "projected cell counts", "setting": "anti-BCMA CAR+ T cells [5]; 0.1 μM lenalidomide, 3 donors, over 28 days", "result": "increased projected cell counts"},
      {"measurement": "CAR T CD25 expression (MFI)", "setting": "anti-BCMA CAR+ T cells [5]; [11]", "result": "significant increase in CAR T CD25 expression"},
      {"measurement": "IL-2, IFN-γ, and TNF-α production in the media", "setting": "anti-BCMA CAR+ T cells [5]; [11]", "result": "significant increase"},
      {"measurement": "CAR-T expansion", "setting": "anti-BCMA CAR+ T cells [5]; 0.1 μM lenalidomide, six donors", "result": "an increase or no change in CAR-T expansion"},
      {"measurement": "expansion of anti-BCMA CAR T cells", "setting": "anti-BCMA CAR+ T cells [5]; 0.01-10 μM lenalidomide, by day 14, vs no lenalidomide", "result": "increased expansion of anti-BCMA CAR T cells"},
      {"measurement": "expansion of cells expressing two different human anti-BCMA CARs", "setting": "anti-BCMA CAR+ T cells [5]; beginning between day 21 and day 28", "result": "increase expansion in both cell populations"},
      {"measurement": "target cell viability", "setting": "RPMI-8226 target cells [6]; RPMI 8226 cells cultured with lenalidomide, no CAR T", "result": "did not directly influence target cell viability"},
      {"measurement": "killing activity", "setting": "RPMI-8226 target cells [6]; lenalidomide present during the cell killing assay", "result": "did not substantially affect killing activity"},
      {"measurement": "cytolytic activity of the CAR+ T cells", "setting": "RPMI-8226 target cells [6]; preincubation with 5 μM lenalidomide during seven day bead incubation", "result": "increased cytolytic activity of the CAR+ T cells"},
      {"measurement": "secreted cytokine levels (IFN-γ, IL-2, TNF-α)", "setting": "anti-BCMA CAR T cells [7]", "result": "potentiated secreted cytokine levels"},
      {"measurement": "CAR-mediated cytolytic activity", "setting": "K562-CD19 cells [8]", "result": "reduced CAR-mediated cytolytic activity"},
      {"measurement": "CAR+ T cell counts", "setting": "[9]; 100 nM lenalidomide", "result": "increased CAR+ T cell counts for two out of three donors"},
      {"measurement": "cell doublings", "setting": "[9]; 2.5:1 E:T ratio, later rounds", "result": "lower cell doublings were only observed in two of the donors"},
      {"measurement": "cell doublings", "setting": "[9]; 10:1 E:T ratio, after 3-4 rounds, all donors", "result": "decreased cell doublings"}
    ]}
  ]
}
